According to ChEMBL document CHEMBL1141970, “Synthesis and chloroquine-enhancing activity of Na-deacetyl-ferrocenoyl-strychnobrasiline” (2005):

What was measured:
Plasmodium falciparum [1] = assay: Percent inhibition of Plasmodium falciparum FCM29 after 10 mg/kg oral dose; type: functional
Plasmodium falciparum [2] = assay: Percent inhibition of Plasmodium falciparum FCM29 after 0.75 mg/kg subcutaneous dose; type: functional; details: sc
Plasmodium falciparum [3] = assay: Percent parasitaemia after 10 mg/kg oral dose; type: functional, K1
Plasmodium falciparum [4] = assay: Percent parasitemia after 0.75 mg/kg dose; type: functional, K1
Plasmodium falciparum [5] = assay: Percent parasitemia after 5 mg/kg peroral dose; type: functional, organism-based; parameters: dose 5 mg/kg; details: K1, at 5 mg/kg
Plasmodium falciparum [6] = assay: Percent inhibition of Plasmodium falciparum FCM29 after 5 mg/kg oral dose; type: functional, organism-based; parameters: dose 5 mg/kg; details: K1, at 5 mg/kg

Compound	inhibition in vivo at 10 mg/kg (Plasmodium falciparum [1]) [%]	inhibition in vivo at 0.75 mg/kg (Plasmodium falciparum [2]) [%]	Parasitemia (Plasmodium falciparum [3]) [%]	Parasitemia (Plasmodium falciparum [4]) [%]	inhibition (Plasmodium falciparum [1]; at 10 mg/kg) [%]	Parasitemia (Plasmodium falciparum [3]; K1, at 10 mg/kg) [%]	Parasitemia (Plasmodium falciparum [5]) [%]	inhibition (Plasmodium falciparum [6]) [%]
CCN(CC)CCCC(C)Nc1ccnc2cc(Cl)ccc12 (stereo not drawn) [CHLOROQUINE]	99.8	17.2	0.1	32.2	–	–	–	–
Ferrocenoyl-strychnobrasiline derivative	–	–	–	–	1.3	38.4	36.1	7.2
